According to ChEMBL document CHEMBL5465560, “Selectivity Literature for EUbOPEN Chemogenomic Library” (2024):

How the values were obtained:
[1] = target: T1, Aurora kinase A (Homo sapiens) (UniProt O14965); assay: Selectivity interaction (Kinase panel (DSF assay)) EUB0001559a STK6
T1 sequence (whole entry): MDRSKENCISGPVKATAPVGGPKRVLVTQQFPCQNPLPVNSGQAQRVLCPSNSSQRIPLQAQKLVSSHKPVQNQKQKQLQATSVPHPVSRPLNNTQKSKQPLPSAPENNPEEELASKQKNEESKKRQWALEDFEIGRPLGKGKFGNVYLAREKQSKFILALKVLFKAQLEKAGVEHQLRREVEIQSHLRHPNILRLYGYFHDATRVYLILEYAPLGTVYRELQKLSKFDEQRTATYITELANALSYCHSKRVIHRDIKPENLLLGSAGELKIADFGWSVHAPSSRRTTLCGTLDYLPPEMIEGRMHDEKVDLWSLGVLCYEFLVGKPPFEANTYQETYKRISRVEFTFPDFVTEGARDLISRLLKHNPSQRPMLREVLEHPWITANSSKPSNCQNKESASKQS

[2] = target: T2, Serine/threonine-protein kinase LATS1 (Homo sapiens) (UniProt O95835); assay: Selectivity interaction (KinomeScan (DiscoverX)) EUB0000695a LATS1; conditions: at 100 nM
T2 sequence (whole entry): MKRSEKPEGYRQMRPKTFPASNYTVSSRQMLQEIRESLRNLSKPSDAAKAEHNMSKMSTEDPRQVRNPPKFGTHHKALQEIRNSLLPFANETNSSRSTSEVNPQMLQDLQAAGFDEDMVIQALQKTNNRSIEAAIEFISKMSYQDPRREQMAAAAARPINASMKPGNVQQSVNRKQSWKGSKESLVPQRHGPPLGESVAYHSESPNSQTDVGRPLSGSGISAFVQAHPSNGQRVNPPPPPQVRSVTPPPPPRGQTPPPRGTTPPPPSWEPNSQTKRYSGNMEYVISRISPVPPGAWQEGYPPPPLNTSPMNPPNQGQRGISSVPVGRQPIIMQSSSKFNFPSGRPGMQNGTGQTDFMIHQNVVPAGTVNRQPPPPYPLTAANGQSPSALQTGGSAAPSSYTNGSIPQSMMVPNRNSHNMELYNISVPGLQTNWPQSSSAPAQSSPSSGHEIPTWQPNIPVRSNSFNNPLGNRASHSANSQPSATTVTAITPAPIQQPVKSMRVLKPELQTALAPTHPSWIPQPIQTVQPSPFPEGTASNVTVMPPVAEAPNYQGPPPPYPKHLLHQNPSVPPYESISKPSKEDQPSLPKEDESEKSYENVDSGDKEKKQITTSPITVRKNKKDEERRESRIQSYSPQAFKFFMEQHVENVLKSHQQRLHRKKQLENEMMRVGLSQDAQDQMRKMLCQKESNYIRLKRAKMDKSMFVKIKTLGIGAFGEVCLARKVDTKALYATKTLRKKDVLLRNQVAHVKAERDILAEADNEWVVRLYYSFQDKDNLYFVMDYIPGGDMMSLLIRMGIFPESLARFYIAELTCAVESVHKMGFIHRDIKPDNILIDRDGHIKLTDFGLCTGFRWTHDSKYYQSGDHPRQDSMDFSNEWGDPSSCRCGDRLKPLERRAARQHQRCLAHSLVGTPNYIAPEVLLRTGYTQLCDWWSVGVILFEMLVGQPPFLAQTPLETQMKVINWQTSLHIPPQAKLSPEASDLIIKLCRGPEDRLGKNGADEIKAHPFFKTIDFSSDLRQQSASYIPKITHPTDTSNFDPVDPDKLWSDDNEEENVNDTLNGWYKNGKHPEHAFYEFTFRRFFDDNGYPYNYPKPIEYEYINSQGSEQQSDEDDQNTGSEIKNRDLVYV

[3] = target: Vascular endothelial growth factor receptor 2 (Homo sapiens, UniProt P35968); assay: Selectivity interaction (KinomeScan (DiscoverX)) EUB0001619a KDR; conditions: at 1 µM
[4] = target: G protein-coupled receptor kinase 6 (Homo sapiens) (UniProt P43250); assay: Selectivity interaction (SelectScreen profiling (Invitrogen)) EUB0000607a GRK6; conditions: at 2 µM
[5] = target: Tyrosine-protein kinase HCK (Homo sapiens) (UniProt P08631); assay: Selectivity interaction (KinomeScan (DiscoverX)) EUB0000607a HCK; conditions: at 10 µM
[6] = test system: Tyrosine-protein kinase ABL1 (Homo sapiens), P00519 [F317L]; assay: Selectivity interaction (KinomeScan (DiscoverX)) EUB0000618a ABL1; conditions: at 10 µM
[7] = target: Ribosomal protein S6 kinase alpha-1 (Homo sapiens, UniProt Q15418); assay: Selectivity interaction (ActivX KiNativ screen (kinase selectivity in THP-1 cell lysates)) EUB0000639a RPS6KA1; assay type: subcellular; conditions: lysate, at 0.04 µM
Ribosomal protein S6 kinase alpha-1, sequence (Q15418 whole entry): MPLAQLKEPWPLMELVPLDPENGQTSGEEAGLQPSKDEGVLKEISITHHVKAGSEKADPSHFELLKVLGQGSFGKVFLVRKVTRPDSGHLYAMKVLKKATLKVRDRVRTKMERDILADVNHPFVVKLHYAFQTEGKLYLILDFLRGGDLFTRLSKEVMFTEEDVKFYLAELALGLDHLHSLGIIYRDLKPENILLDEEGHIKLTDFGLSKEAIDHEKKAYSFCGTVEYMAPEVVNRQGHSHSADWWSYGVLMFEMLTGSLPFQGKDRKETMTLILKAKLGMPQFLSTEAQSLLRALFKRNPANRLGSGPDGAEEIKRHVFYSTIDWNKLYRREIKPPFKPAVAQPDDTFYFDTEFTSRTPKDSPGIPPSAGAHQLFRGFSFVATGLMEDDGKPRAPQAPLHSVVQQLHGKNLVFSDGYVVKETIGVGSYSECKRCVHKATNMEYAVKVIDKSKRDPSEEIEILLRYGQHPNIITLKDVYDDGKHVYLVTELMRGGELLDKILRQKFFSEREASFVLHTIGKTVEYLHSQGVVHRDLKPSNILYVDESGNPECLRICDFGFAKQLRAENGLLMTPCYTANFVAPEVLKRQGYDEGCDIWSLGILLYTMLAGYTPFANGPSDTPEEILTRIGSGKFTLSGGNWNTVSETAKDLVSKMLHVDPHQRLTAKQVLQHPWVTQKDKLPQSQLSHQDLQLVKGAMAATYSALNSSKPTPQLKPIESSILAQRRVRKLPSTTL

Tyrosine-protein kinase HCK (Homo sapiens), sequence (P08631 2-526 limits assumed): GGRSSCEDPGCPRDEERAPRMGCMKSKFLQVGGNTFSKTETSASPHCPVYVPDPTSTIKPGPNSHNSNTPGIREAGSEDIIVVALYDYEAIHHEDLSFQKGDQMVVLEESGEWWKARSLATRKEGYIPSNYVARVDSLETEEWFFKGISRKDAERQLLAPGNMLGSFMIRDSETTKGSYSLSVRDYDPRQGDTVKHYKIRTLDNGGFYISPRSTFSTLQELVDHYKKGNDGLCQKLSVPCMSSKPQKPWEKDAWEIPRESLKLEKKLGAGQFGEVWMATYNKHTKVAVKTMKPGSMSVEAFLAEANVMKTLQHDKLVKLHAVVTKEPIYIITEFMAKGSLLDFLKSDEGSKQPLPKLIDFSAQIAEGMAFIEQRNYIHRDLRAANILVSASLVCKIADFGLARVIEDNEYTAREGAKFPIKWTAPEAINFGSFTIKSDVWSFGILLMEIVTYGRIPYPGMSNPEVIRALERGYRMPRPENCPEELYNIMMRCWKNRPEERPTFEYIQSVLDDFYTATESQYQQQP
Vascular endothelial growth factor receptor 2, sequence (P35968 whole entry): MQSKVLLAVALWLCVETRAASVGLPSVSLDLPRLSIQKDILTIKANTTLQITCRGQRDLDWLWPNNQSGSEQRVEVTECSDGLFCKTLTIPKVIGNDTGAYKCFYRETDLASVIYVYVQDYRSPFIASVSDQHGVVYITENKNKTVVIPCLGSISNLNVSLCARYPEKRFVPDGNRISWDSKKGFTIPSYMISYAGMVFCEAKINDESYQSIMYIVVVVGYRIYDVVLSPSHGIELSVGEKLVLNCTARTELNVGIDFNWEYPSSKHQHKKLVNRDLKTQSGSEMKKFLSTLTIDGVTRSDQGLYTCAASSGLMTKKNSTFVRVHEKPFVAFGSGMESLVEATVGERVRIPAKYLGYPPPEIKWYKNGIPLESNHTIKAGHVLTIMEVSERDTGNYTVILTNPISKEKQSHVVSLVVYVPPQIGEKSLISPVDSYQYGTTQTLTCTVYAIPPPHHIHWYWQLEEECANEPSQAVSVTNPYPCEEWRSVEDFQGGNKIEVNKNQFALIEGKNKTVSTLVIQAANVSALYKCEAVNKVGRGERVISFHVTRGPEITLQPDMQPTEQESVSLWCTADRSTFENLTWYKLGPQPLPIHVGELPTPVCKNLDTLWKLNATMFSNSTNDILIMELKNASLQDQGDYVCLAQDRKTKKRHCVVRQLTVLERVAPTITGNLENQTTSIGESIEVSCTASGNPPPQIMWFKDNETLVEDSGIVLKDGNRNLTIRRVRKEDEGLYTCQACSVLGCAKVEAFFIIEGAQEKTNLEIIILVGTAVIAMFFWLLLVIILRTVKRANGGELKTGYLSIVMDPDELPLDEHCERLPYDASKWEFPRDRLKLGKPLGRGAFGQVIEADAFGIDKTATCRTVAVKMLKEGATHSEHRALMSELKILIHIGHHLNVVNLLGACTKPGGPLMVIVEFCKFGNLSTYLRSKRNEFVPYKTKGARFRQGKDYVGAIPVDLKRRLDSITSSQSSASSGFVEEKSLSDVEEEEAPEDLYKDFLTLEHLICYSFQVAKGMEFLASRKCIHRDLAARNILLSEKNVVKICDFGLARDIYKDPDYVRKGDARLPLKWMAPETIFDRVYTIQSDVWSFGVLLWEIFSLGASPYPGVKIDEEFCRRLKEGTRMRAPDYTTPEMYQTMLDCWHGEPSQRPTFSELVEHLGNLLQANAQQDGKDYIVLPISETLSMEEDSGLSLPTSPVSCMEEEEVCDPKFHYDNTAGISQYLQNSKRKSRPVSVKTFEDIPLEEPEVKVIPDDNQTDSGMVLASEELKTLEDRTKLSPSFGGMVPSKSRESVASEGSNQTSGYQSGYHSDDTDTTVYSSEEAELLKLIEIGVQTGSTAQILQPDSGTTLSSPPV
G protein-coupled receptor kinase 6 (Homo sapiens), sequence (P43250 whole entry, looked up): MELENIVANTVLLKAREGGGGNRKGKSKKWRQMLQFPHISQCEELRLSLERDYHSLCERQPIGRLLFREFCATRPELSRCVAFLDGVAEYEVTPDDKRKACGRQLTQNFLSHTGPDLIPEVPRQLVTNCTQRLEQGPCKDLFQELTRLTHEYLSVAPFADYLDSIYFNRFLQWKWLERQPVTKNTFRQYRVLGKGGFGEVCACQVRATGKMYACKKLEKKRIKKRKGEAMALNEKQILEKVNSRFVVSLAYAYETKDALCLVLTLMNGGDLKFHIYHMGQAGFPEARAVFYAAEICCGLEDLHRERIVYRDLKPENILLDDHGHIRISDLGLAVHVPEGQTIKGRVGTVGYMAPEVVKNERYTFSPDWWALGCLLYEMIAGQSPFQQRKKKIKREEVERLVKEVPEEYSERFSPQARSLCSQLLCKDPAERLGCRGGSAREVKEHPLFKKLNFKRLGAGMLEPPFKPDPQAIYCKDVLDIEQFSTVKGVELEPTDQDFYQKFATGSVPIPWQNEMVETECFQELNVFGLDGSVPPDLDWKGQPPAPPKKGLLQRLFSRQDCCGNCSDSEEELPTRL
Tyrosine-protein kinase ABL1 (Homo sapiens), P00519 [F317L], sequence (P00519 whole entry F317L): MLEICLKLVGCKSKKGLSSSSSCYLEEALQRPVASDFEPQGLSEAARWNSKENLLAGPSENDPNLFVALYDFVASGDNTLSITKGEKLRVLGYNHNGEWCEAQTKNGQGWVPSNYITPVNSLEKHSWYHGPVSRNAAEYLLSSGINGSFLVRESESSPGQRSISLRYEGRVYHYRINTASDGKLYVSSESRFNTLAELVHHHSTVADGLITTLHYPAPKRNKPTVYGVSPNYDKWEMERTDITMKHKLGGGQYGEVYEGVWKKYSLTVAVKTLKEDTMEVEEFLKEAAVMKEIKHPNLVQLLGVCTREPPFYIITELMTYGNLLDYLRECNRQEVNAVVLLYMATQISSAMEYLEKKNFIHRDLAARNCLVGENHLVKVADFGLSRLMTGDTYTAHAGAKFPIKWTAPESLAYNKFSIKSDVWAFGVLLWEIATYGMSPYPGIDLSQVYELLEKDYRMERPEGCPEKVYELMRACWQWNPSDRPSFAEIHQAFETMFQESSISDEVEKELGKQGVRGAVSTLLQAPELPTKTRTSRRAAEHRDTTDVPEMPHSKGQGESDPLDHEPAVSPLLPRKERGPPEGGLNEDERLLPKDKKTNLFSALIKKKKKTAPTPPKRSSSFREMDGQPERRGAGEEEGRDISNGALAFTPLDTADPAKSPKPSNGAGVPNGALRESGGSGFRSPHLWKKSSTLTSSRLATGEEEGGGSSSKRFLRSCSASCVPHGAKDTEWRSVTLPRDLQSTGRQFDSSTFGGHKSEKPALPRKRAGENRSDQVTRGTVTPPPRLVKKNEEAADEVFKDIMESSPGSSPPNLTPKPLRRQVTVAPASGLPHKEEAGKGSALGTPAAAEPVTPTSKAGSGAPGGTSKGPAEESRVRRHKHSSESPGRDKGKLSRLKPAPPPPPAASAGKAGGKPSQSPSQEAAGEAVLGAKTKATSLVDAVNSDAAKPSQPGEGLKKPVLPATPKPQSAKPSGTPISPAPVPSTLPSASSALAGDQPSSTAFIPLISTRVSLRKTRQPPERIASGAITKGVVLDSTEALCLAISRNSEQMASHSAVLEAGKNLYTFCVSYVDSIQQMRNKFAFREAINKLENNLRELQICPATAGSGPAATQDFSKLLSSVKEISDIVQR

SMILES: CN(C(=O)c1cnn2cccnc12)c1cc2c(cc1N1CCOCC1)C(=O)N(C[C@@H](F)C(C)(C)O)C2
- dTM [1]: -0.6 K

SMILES: Cc1cc(F)c(C(=O)Nc2cccc(-c3nncn3C(C)C)n2)cc1-n1cnc(C2CC2)c1
- % of control [2]: 86%

SMILES: N#Cc1cccc(-c2c[nH]c3ncnc(N4CCOCC4)c23)c1
- % of control [3]: 62%

SMILES: CNC(=O)Nc1ccc(-c2nc(N3CC4CCC(C3)O4)c3cnn(C4CCC5(CC4)OCCO5)c3n2)cc1
- % of inhibition [4]: -1%
- % of control [5]: 100%

SMILES: O[C@H]1CC[C@H](Nc2ncc3nc(Nc4c(F)cc(F)cc4F)n([C@H]4CCOC4)c3n2)CC1
- % of control [6]: 30%

SMILES: CC[C@@H]1[C@H](F)C(=O)N[C@@H]1COc1nccc2cc(C(N)=O)c(OC)cc12 [ZIMLOVISERTIB]
- % of inhibition [7]: 6.3%
